Results reported in article PMC4546552 (ACS chemical biology, 2015).
Where two headings read alike, the source gives them in different places. Blank lines part the entries; values can stand above or below the molecule they belong to.

Legend:
rat NAAA (r-NAAA) = target: T1, rat NAAA (r-NAAA) (Rattus norvegicus, UniProt Q5KTC7); conditions: cited from earlier work
T1 sequence (Q5KTC7 131-362 limits assumed): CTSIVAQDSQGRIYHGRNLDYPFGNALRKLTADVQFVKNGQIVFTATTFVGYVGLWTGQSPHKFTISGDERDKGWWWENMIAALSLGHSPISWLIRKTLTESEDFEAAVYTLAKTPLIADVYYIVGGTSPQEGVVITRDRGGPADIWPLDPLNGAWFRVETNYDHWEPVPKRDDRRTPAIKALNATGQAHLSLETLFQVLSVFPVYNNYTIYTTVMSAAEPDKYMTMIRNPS
T1 sequence (Q5KTC7 34-130 limits assumed): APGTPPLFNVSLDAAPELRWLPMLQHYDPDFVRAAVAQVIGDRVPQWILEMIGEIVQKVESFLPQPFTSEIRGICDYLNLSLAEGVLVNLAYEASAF

human NAAA (h-NAAA) = target: T2, human NAAA (h-NAAA) (Homo sapiens, UniProt Q02083); conditions: read-out: IC50 for human NAAA (h-NAAA); cited from earlier work
T2 sequence (Q02083 29-359): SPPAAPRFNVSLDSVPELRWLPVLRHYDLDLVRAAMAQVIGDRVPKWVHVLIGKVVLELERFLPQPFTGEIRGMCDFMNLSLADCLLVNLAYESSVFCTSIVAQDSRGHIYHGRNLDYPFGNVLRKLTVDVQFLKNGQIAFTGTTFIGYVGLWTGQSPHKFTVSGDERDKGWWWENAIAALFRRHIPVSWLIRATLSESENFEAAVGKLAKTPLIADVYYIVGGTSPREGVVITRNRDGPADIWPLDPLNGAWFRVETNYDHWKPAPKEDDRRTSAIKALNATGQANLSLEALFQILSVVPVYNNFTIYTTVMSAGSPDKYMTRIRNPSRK

[1] = cited from earlier work
rodent models = conditions: cited from earlier work
[2] = Stability in rat liver microsomes; type: in vitro ADME
[3] = Stability in mouse liver microsomes; type: in vitro ADME
rat FAAH = target: T3, rat FAAH (Rattus norvegicus, UniProt P97612); experiment: Rat FAAH inhibition; type: biochemical
T3 sequence (P97612 1-579): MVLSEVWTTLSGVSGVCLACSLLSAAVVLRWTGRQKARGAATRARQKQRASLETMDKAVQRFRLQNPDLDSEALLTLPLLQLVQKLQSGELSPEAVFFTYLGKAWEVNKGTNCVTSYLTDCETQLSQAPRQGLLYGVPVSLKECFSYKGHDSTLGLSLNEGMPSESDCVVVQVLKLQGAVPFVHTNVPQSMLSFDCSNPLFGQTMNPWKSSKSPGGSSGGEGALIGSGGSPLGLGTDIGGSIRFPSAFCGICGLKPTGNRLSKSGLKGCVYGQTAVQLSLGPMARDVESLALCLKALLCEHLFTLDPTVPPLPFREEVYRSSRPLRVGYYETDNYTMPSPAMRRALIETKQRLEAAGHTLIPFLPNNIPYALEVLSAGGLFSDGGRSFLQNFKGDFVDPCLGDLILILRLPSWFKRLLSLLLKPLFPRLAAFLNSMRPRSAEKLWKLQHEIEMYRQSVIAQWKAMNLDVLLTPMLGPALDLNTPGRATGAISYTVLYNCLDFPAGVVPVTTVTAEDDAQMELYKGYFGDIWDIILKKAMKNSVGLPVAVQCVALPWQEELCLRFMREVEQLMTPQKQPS

[4] = test system: panel of 28 biologically relevant targets comprising lipid-metabolizing and inflammation-related enzymes; experiment: CEREP selectivity panel, enzymes; type: biochemical; conditions: 10 μM
[5] = test system: 79 commonly targeted ion channels, membrane transporters and receptors; experiment: CEREP selectivity panel, channels, transporters, receptors; type: binding; conditions: 10 μM
[6] = Pharmacokinetic analyses in mice, intravenous; type: in vivo; conditions: mouse, plasma, 3 mg/kg
r-NAAA = target: T4, r-NAAA (Rattus norvegicus, UniProt Q5KTC7); experiment: NAAA acylation in r-NAAA-overexpressing HEK-293 cells; type: cell-based; conditions: HEK-293 cells overexpressing r-NAAA, 10 μM, 1 h
T4 sequence (Q5KTC7 131-362 limits assumed): T1 sequence (Q5KTC7 131-362 limits assumed)
T4 sequence (Q5KTC7 34-130 limits assumed): T1 sequence (Q5KTC7 34-130 limits assumed)

NAAA [7] = target: T5, NAAA (Rattus norvegicus, UniProt Q5KTC7); experiment: In vivo NAAA acylation in rat lungs; conditions: rats, intravenous, 10 mg kg^−1
T5 sequence (Q5KTC7 131-362 limits assumed): T1 sequence (Q5KTC7 131-362 limits assumed)
T5 sequence (Q5KTC7 34-130 limits assumed): T1 sequence (Q5KTC7 34-130 limits assumed)

NAAA [8] = target: T6, NAAA (Mus musculus, UniProt Q9D7V9); experiment: Ex vivo mouse NAAA activity after dosing; type: in vivo; conditions: mice
T6 sequence (Q9D7V9 34-362): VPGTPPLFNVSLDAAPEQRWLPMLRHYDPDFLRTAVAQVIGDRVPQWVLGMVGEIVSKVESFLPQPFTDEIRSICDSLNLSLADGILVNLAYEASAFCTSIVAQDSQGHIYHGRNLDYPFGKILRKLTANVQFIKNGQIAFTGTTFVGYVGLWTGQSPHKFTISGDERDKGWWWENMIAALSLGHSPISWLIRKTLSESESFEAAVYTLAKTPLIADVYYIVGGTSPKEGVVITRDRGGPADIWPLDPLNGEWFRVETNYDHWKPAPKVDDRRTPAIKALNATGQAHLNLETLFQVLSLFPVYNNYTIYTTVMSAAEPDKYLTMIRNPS

PEA and OEA levels = PEA and OEA levels in mouse lungs; type: in vivo; conditions: 30 mg kg^−1 oral
[9] = test system: carrageenan-induced inflammation; experiment: Carrageenan-induced inflammation in mice; type: in vivo, mouse
[10] = test system: LPS-activated human macrophages; experiment: LPS-activated human monocyte-derived macrophages; type: cell-based

Compound: C[C@@H]1OC(=O)[C@@H]1NC(=O)OCCCCCc1ccccc1 [Compound 4]
IC50 (rat NAAA (r-NAAA); read-out: IC50 for r-NAAA): ~50 nM
IC50 (human NAAA (h-NAAA)): ~7 nM
t1/2 in plasma [1]: < 1 min
analgesic properties in rodent models (rodent models): marked analgesic properties

half-life [2]: < 5 min
half-life [3]: < 5 min
IC50 (rat FAAH): > 100 µM
interaction with panel of 28 enzymes [4]: did not interact
effect on 79 ion channels, membrane transporters and receptors [5]: no significant effect
Cmax [6]: 1610 ng/mL
Vd [6]: 3.1 L/kg
clearance [6]: 139 mL/min/kg
half-life [6]: ~15 min
covalent adduct with N-terminal cysteine (Cys131) of NAAA (r-NAAA): covalent product
formation of covalent NAAA adduct in lungs (NAAA [7]): rapid formation of covalent adduct
inhibition of NAAA activity in various organs (NAAA [8]; intraperitoneal 3–30 mg kg^−1, 2 h): substantial inhibition of NAAA activity
inhibition of NAAA activity ex vivo (NAAA [8]; oral 30 mg kg^−1, 2 h): substantial inhibition of NAAA activity
Compound: O=C(N[C@H]1CNC1=O)OCCCCC1CCCCC1 [Compound 6, 4-Cyclohexylbutyl-N-[(S)-2-oxoazetidin-3-yl]carbamate]
OEA levels in lungs (PEA and OEA levels; carrageenan-challenged mice): markedly increased
PEA levels in lungs (PEA and OEA levels; carrageenan-challenged mice): markedly increased
OEA levels in lungs (PEA and OEA levels; naïve mice): no effect
PEA levels in lungs (PEA and OEA levels; naïve mice): no effect
anti-inflammatory effects under antagonism of CB1 or CB2 receptors ([9]; AM251 or AM630 1 mg kg^−1 i.p. 30 min before 6): did not prevent the anti-inflammatory effects
carrageenan-induced TNF-α levels in pleural exudate ([9]; mice, 1–30 mg kg^−1, oral): prevented both responses in a dose-dependent manner
carrageenan-induced lung tissue myeloperoxidase (MPO) activity ([9]; mice, 1–30 mg kg^−1, oral): prevented both responses in a dose-dependent manner
LPS-induced expression of iNOS ([10]; CD68+ human macrophages, LPS 100 ng mL^−1, flow cytometry): significant concentration-dependent inhibition
LPS-induced release of TNF-α ([10]; CD68+ human macrophages, LPS, enzyme-linked immunoassay): significant concentration-dependent inhibition
LPS-induced TNF-α expression ([10]; human macrophages, LPS, flow cytometry): Concentration-dependent effects

Compound: C[C@@H]1C[C@H]2[C@@H]3CCC4=CC(=O)C=C[C@]4(C)[C@@]3(F)[C@@H](O)C[C@]2(C)[C@@]1(O)C(=O)CO [dexamethasone, reference compound]
carrageenan-induced lung MPO activity, effect relative to maximal effect of 6 ([9]; mice, 0.5 mg kg^−1, intraperitoneal): comparable

Compound: O=C(CCc1ccccc1)N[C@H]1COC1=O [Compound 3, N-[(3S)-2-oxo-3-oxetanyl]-3-phenylpropanamide]
IC50 (rat NAAA (r-NAAA); read-out: IC50 for rat NAAA (r-NAAA)): ~420 nM

covalent adduct with N-terminal cysteine (Cys131) of NAAA (r-NAAA): only negligible amounts of the adduct
Compound: O=C(N[C@@H]1CNC1=O)OCCCCC1CCCCC1 [Compound 7, 4-Cyclohexylbutyl-N-[(R)-2-oxoazetidin-3-yl]carbamate]
carrageenan-induced TNF-α levels in pleural exudate ([9]; mice, 30 mg kg^−1, oral): no such effect
carrageenan-induced lung tissue myeloperoxidase (MPO) activity ([9]; mice, 30 mg kg^−1, oral): no such effect
